Literature values in patent US9409783B2, “Method for manufacturing mesoporous materials, materials so produced and use of mesoporous materials” (Nanologica AB, priority 2008, dated 2016).

Conditions: L-glutamate group of folic acid; deprotonated and negatively charged above this pH

pKa value: 8.3
Compound: Nc1nc2ncc(CNc3ccc(C(=O)N[C@@H](CCC(=O)O)C(=O)O)cc3)nc2c(=O)[nH]1 [folic acid]
